Experimental findings from US20180021270A1, “METHODS FOR THE TREATMENT OF CANCER USING COENZYME Q10 IN COMBINATION WITH IMMUNE CHECKPOINT MODULATORS” (Berg LLC, priority 2016, published 2018) are described below.

The nature of series [1]: Body weight of C57BL/6 mice with Pan02 tumors. It counts as in vivo, mouse. The following applies: 25, 50 or 100 mg/kg i.p. twice per day for 21 days. As for the experimental part:
The body weight of C57BL/6 mice implanted with murine Pan02 pancreatic cancer cells and treated with Coenzyme Q10 was also evaluated. Tumors with mean volume of 100 mm^3 were treated twice per day with vehicle control or Coenzyme Q10 at 25, 50 or 100 mg/kg administered intraperitoneally for 21 days. Body weight was measured every two days for the first 5 days, and then twice per week.

Series [2] relates to T cell surface proteins in buffy coat. In words: Proteomic analysis of buffy coat samples from cancer patients administered Coenzyme Q10. The following applies: patients with solid tumors, intravenous 4% Coenzyme Q10 nanosuspension; start vs end of treatment. It counts as in vivo, human. On the procedure: The ability of Coenzyme Q10 to modulate immune function in cancer patients was investigated by characterizing the molecular signature in buffy coats of patients administered Coenzyme Q10 for the treatment of solid tumors. A sterile Coenzyme Q10 (Ubidecarenone, USP) nanosuspension was administered intravenously to patients with solid tumors. Coenzyme Q10 was evaluated both as a monotherapy and in combination with standard chemotherapeutic agents (e.g. gemcitabine, 5-fluorouracil and docetaxel). The Coenzyme Q10 was provided as a 4% coenzyme Q10 nanosuspension formulation as described in WO 2011/112900, the entire contents of which are expressly incorporated herein by reference.
The effect of Coenzyme Q10 treatments on protein expression in immune cells within the buffy coat was evaluated. Furthermore, it was determined whether the proteins identified were known to be on the surface of T cells. To complete this analysis, buffy coat samples were subjected to shot gun global proteomic analysis, and a comprehensive list of proteins were generated for samples obtained from 25 patients being treated for solid tumors with Coenzyme Q10 as described above.
For proteomic analysis, data from two publically available T cell proteomic studies were combined. See Graessel A. et al., 2015, Molecular and Cellular Proteomics 14: 2085-2102; and Loyet K. M. et al., 2005, Proteome Research 4: 400, the entire contents of each of which are expressly incorporated herein by reference. Both studies defined the set of proteins on the surface of naïve and activated T cells to generate a working list of proteins potentially found on the T cell surface. This list (>600 proteins) was compared to the total proteome of the buffy coat (>2000 proteins) from twenty-five patients treated with Coenzyme Q10 as monotherapy.
A total of 62 common proteins shared between T cell surface proteome and the buffy coat proteome were identified. The relative change in protein levels (on the y-axis) represents the slope of the line derived from the linear regression of the level of each protein at the start of Coenzyme Q10 treatment versus the level at the end of Coenzyme Q10 treatment. FIG. 1 provides a schematic of the plot slope of linear regression representing the change in protein expression over time.

In series [3] the test system is colon (HT29) cancer cells. In words: mRNA expression of PD1, PD-L1 and PD-L2 in cancer cells treated with Coenzyme Q10. The settings on record: 50 μM Coenzyme Q10, relative to untreated cells (p<0.05; n=3). It counts as cell-based, human. As for the experimental part:
Levels of mRNA expression of the immune checkpoints PD1, PD-L1 and PD-L2 were determined in human breast (MDA-MB231), prostate (LnCAP), ovarian (SKOV-3), colon (HT29), lung (A549), liver (Huh-7), and pancreatic (MIA PaCa-2) cancer cells treated with 50 μM Coenzyme Q10, 100 μM Coenzyme Q10, or the IC50 of Coenzyme Q10 for each cell line.

The subject of series [4] is B16F10 skin melanoma cells. In words: Cell viability (CellTiter-Fluor) of mouse syngeneic tumor cell line. It counts as cell-based. The following applies: B16F10, 72 hours, 37° C. On the procedure:
(§1) The sensitivity of mouse syngeneic tumor cell lines to Coenzyme Q10 was evaluated in vitro. Six mouse syngeneic tumor cell lines from different tissue types were exposed to increasing concentrations of Coenzyme Q10 (0-25 mM) at 37° C. for 72 hours. Cell viability was measured using CellTiter-Fluor kit (Promega, Madison, Wis.). Graphs and IC50 values were calculated using GraphPad Prism using data for at least three independent experiments. Mouse syngeneic tumor cell lines evaluated were Lewis lung carcinoma (LL2), hepatoma (Hepa1-6) skin melanoma (B16F10), colon cancer (CT26), mammary gland adenocarcinoma (EMT6/P), and renal adenocarcinoma (Renca). As shown in FIGS. 24A-24F, Coenzyme Q10 reduced viability of all of the tumor cell lines in a dose dependent manner.

The test system of series [5] is EMT6/P mammary gland adenocarcinoma cells. Described as above. The following applies: 72 hours, 37° C. It counts as cell-based. As for the experimental part:
as §1

Series [6] has as its system Renca renal adenocarcinoma cells. Described as above. The following applies: 72 hours, 37° C. It counts as cell-based. On the procedure:
as §1

The next series relates to CT26 colon cancer cells. The series is described as above. It counts as cell-based. The settings on record: CT26, 72 hours, 37° C. As for the experimental part:
as §1

The next series has as its system PD-1. In words: Inhibitory receptor surface expression on T cells within PBMCs. The settings on record: PHA-stimulated T cells, 24 hours, dose dependent. It counts as cell-based, human. As for the experimental part:
(§2) Expression of the inhibitory receptor proteins PD-1 and CTLA-4 on the surface of T cells within PBMCs was also determined. The cells were treated with Coenzyme Q10 for 24 hours. Expression of immune checkpoint receptors was measured by staining cells with phenotypic markers for CD3/CD8, or CD3/CD4 in combination with antibodies against PD-1 or CTLA-4. Live cells were identified as 7 AAD negative lymphocytes followed by T cell phenotype characterization of total CD3+ T cells, cytotoxic T cells, or helper T cells. PD-1 or CTLA-4 cell surface expression was measured as mean fluorescence intensity on live T cells. Cells from three donors were tested. As shown in FIGS. 20A and 20B, Coenzyme Q10 decreased PD-1 and CTLA-4 expression on the surface of PHA-stimulated T cells in a dose dependent manner.

In another series the test system is CTLA-4. The series is described as above. It counts as cell-based, human. The settings on record: PHA-stimulated T cells, 24 hours, dose dependent. On the procedure: as §2
Another series deals with human PBMCs (T cells). Briefly: Frequency of immune cell populations within PBMCs by flow cytometry. It counts as cell-based. The following applies: 0-800 μM, 24 hours, dose dependent; greater effect in PHA-stimulated than unstimulated cells. As for the experimental part: PBMCs isolated from healthy human donor leukopaks were isolated and cryopreserved. To study the effect of Coenzyme Q10, cells were thawed, rested overnight and treated with or without phytohemagglutinin (PHA). PHA is a lectin protein found in plants which activates T cells by inducing mitosis. Various concentrations of Coenzyme Q10 (0, 12.5, 50, 200, 400 or 800 μM) were added to the cells at the same time. 24 hours to 72 hours post-treatment, frequency and viability of immune cell subpopulations was evaluated, as well as proliferative potential, cytokine secretion, and inhibitory receptor surface expression.
The frequency of different immune cell populations within PHA stimulated or unstimulated human PBMCs concurrently treated with Coenzyme Q10 (0, 12.5, 50, 200, 400 or 800 μM) was evaluated by flow cytometry. 24 hours post treatment, PBMCs were analyzed for the surface markers CD3/CD8, CD3/CD4, CD3/CD56, or CD19/CD14. Frequency of immune cell subtypes was quantified by percentage of cells gated for T cells (CD3/CD8/CD4), natural killer T cells (NKT), natural killer (NK) cells, B cells, and monocytes. Cells from 5 healthy donors were tested.

With `COC1=C(OC)C(=O)C(C/C=C(\C)CC/C=C(\C)CC/C=C(\C)CC/C=C(\C)CC/C=C(\C)CC/C=C(\C)CC/C=C(\C)CC/C=C(\C)CC/C=C(\C)CCC=C(C)C)=C(C)C1=O` [Coenzyme Q10], the “Effect on body weight” value in [1] was “no significant effect”. Besides, in [2], the “Expression of CD8B in buffy coat” value is “downregulated”, the “Expression of CD247 in buffy coat” value is on record as “downregulated”, the “Expression of CFL1 in buffy coat” value was “upregulated” and the “Expression of S100A8 in buffy coat” value is “upregulated”. Moreover, the “PD-L1 mRNA expression” value in series [3] is on record as “significant increase”. The half-inhibitory concentration (IC50) in [4] amounted to 1.36 mM. This compound showed an IC50 in series [5] of 2.2 mM. In series [6], this compound yielded a half-inhibitory concentration (IC50) of 3.75 mM. The IC50 in the series on CT26 colon cancer cells amounted to 1.91 mM. In the series with PD-1, the “PD-1 expression on the surface of T cells (mean fluorescence intensity)” value was “decreased”. For the same compound, in the series on CTLA-4, the “CTLA-4 expression on the surface of T cells (mean fluorescence intensity)” value is given as “decreased”. In the series on human PBMCs (T cells), the “Frequency of cytotoxic T cells” value was “increased”, the “Frequency of helper T cells” value was “increased” and the “Frequency of total T cells” value is listed as “increased”.

For orientation: IC50 means the concentration that gives 50% inhibition. A higher IC50 goes with lower potency.
